These results are taken from patent publication US10865216B2, “Tricyclic Gyrase inhibitors” (MERCK SHARP & DOHME CORP., priority 2012, dated 2020).

SMILES strings stand for the structures. Converted amounts (≈) assume the structure as drawn.

One test concerns E. coli ATCC 25922. The experiment in a line: MIC, E. coli ATCC 25922. The test is classed as cell-based. The following applies: Alamar Blue read after overnight incubation at 35° C.; for MIC: Escherichia coli, ATCC25922, E. coli, read-out: MIC Ec; for MIC Ec: E. coli. (Resazurin is reduced to fluorescent resorufin, in cell work by metabolically active cells.)
The next test deals with S. aureus ATCC 13709. The experiment in a line: MIC, S. aureus ATCC 13709. Format: cell-based. The following applies: Alamar Blue read after overnight incubation at 35° C.; for MIC: Staphylococcus aureus, ATCC13709, S. aureus, read-out: MIC Sa; for MIC Sa: S. aureus.

In general, MIC refers to the lowest concentration found to suppress growth. As to `CNc1cccc2c1[nH]c1nc(Oc3cnc(N)nc3)cc(N3CC4C(N)C4C3)c12` (stereo not drawn) [Compound 3.32], the values for the MIC in the test on E. coli ATCC 25922 and in the test with S. aureus ATCC 13709 were 2 µg/mL (≈ 4.97 µM) and no more than 0.5 µg/mL, respectively.

As to `CNc1cccc2c1[nH]c1nc(Oc3cncc(F)c3)cc(N3CC4C(N)C4C3)c12` (stereo not drawn) [Compound 3.33], the MIC is 1 µg/mL (≈ 2.47 µM) in the test on E. coli ATCC 25922 and no more than 0.5 µg/mL in the test on S. aureus ATCC 13709.

Consider `CNc1cccc2c1[nH]c1nc(Oc3cnc4cccnc4c3)cc(N3CC4C(N)C4C3)c12` (stereo not drawn) [Compound 3.34], for which the MIC in the test with E. coli ATCC 25922 and with S. aureus ATCC 13709 was no more than 0.5 µg/mL each time.

On to `CNc1cccc2c1[nH]c1nc(Oc3cncc(OC)c3)cc(N3CC4C(N)C4C3)c12` (stereo not drawn) [Compound 3.35], for which the MIC was 1 µg/mL (≈ 2.4 µM) in the test on E. coli ATCC 25922 and no more than 0.5 µg/mL in the test on S. aureus ATCC 13709.

For the compound `CNc1cccc2c1[nH]c1nc(Oc3cnc4c(c3)ncn4C)cc(N3CC4C(N)C4C3)c12` (stereo not drawn) [Compound 3.36], the MIC in the test with E. coli ATCC 25922 is 2 µg/mL (≈ 4.54 µM); in the test on S. aureus ATCC 13709 it was no more than 0.5 µg/mL.

Turning to `CNc1cccc2c1[nH]c1nc(Oc3cncnc3)cc(Oc3cncnc3)c12` [Compound 3.37], the figures for the MIC in the test on E. coli ATCC 25922 and in the test with S. aureus ATCC 13709 were greater than 64 µg/mL and 2 µg/mL (≈ 5.19 µM), respectively.

Take `CNc1cccc2c1[nH]c1nc(Oc3cnc(C)nc3)cc(Oc3cnc(C)nc3)c12` [Compound 3.38]: the MIC is greater than 32 µg/mL in the test on E. coli ATCC 25922 and 1 µg/mL (≈ 2.42 µM) with S. aureus ATCC 13709.

`CNc1cccc2c1[nH]c1nc(Oc3ccc[n+]([O-])c3)cc(Oc3cnc(C)nc3)c12` [Compound 3.39]: the MIC in the test with E. coli ATCC 25922 came to 64 µg/mL (≈ 154 µM); with S. aureus ATCC 13709, 2 µg/mL (≈ 4.83 µM).

As for `CNc1cccc2c1[nH]c1nc(Oc3cncc(C#N)c3)cc(N3CCC4(CC4N)C3)c12` (stereo not drawn) [Compound 3.40], the MIC is 1 µg/mL (≈ 2.35 µM) in the test on E. coli ATCC 25922 and no more than 0.5 µg/mL in the test on S. aureus ATCC 13709.

Regarding `CNc1cccc2c1[nH]c1nc(Oc3cncnc3)cc(N3CCC4(CC4N)C3)c12` (stereo not drawn) [Compound 3.41], the minimal inhibitory concentration (MIC) in the test on E. coli ATCC 25922 and with S. aureus ATCC 13709 was no more than 0.5 µg/mL each time.

Take `CNc1cccc2c1[nH]c1nc(Oc3cnc(C)nc3)cc(N3CCC4(CC4N)C3)c12` (stereo not drawn) [Compound 3.42]: the MIC in the test on E. coli ATCC 25922 was 2 µg/mL (≈ 4.81 µM); in the test with S. aureus ATCC 13709, no more than 0.5 µg/mL.

Consider `CNc1cccc2c1[nH]c1nc(Oc3cncc(C#N)c3)cc(N3CC(N)C4(CC4)C3)c12` (stereo not drawn) [Compound 3.43], for which the MIC is 1 µg/mL (≈ 2.35 µM) in the test on E. coli ATCC 25922 and no more than 0.5 µg/mL with S. aureus ATCC 13709.

In the case of `CNc1cccc2c1[nH]c1nc(Oc3cncc(C#N)c3)cc(N3C[C@@H](NC)C4(CC4)C3)c12` [Compound 3.44], the MIC in the test on E. coli ATCC 25922 is 16 µg/mL (≈ 36.4 µM); with S. aureus ATCC 13709, 8 µg/mL (≈ 18.2 µM).

With `CNc1cccc2c1[nH]c1nc(Oc3cncnc3)cc(N3CC(N)C4(CC4)C3)c12` (stereo not drawn) [Compound 3.45], the MIC in the test with E. coli ATCC 25922 and in the test on S. aureus ATCC 13709 was no more than 0.5 µg/mL in each case.

On to `CNc1cccc2c1[nH]c1nc(Oc3cncnc3)cc(N3C[C@@H](NC)C4(CC4)C3)c12` [Compound 3.46], for which the MIC with E. coli ATCC 25922 was 4 µg/mL (≈ 9.63 µM); in the test with S. aureus ATCC 13709 it was 2 µg/mL (≈ 4.81 µM).

With `CNc1cccc2c1[nH]c1nc(Oc3cncnc3)cc(N3C[C@H](NC)C4(CC4)C3)c12` [Compound 3.47], the MIC in the test with E. coli ATCC 25922 and with S. aureus ATCC 13709 was no more than 0.5 µg/mL in each case.

In the case of `CNc1cccc2c1[nH]c1nc(Oc3cnc(C)nc3)cc(N3C[C@@H](NC)C4(CC4)C3)c12` [Compound 3.48], the results for the MIC in the test with E. coli ATCC 25922 and in the test with S. aureus ATCC 13709 were 8 µg/mL (≈ 18.6 µM) and 2 µg/mL (≈ 4.66 µM), respectively.

For `CNc1cccc2c1[nH]c1nc(Oc3cnc(C)nc3)cc(N3C[C@H](NC)C4(CC4)C3)c12` [Compound 3.49], the minimal inhibitory concentration (MIC) in the test on E. coli ATCC 25922 and with S. aureus ATCC 13709 was no more than 0.5 µg/mL throughout.

`CNc1cccc2c1[nH]c1nc(Oc3cncc(F)c3)cc(N3CC(N)C4(CC4)C3)c12` (stereo not drawn) [Compound 3.50]: the minimum inhibitory concentration (MIC) was 2 µg/mL (≈ 4.78 µM) with E. coli ATCC 25922 and no more than 0.5 µg/mL in the test with S. aureus ATCC 13709.

For `CNc1cccc2c1[nH]c1nc(Oc3cncc(F)c3)cc(N3C[C@@H](NC)C4(CC4)C3)c12` [Compound 3.51], the MIC with E. coli ATCC 25922 was 32 µg/mL (≈ 74 µM); in the test with S. aureus ATCC 13709, 8 µg/mL (≈ 18.5 µM).

Turning to `CNc1cccc2c1[nH]c1nc(Oc3cnc4cccnc4c3)cc(N3CC(N)C4(CC4)C3)c12` (stereo not drawn) [Compound 3.52], the MIC in the test on E. coli ATCC 25922 and with S. aureus ATCC 13709 was no more than 0.5 µg/mL throughout.

For `CNc1cccc2c1[nH]c1nc(Oc3cncnc3)cc(N3CCN(Cc4ccccn4)CC3)c12` [Compound 3.54], the MIC in the test with E. coli ATCC 25922 is greater than 32 µg/mL; with S. aureus ATCC 13709 it was 8 µg/mL (≈ 17.1 µM).

Take `CNc1cccc2c1[nH]c1nc(Oc3cncc(C#N)c3)cc(N3CCN(CCN)CC3)c12` [Compound 3.55]: the MIC in the test with E. coli ATCC 25922 was greater than 64 µg/mL; in the test with S. aureus ATCC 13709, 64 µg/mL (≈ 145 µM).

As for `CNc1cccc2c1[nH]c1nc(Oc3cncnc3)cc(N3CCN(CCN)CC3)c12` [Compound 3.56], the MIC in the test on E. coli ATCC 25922 and with S. aureus ATCC 13709 was greater than 64 µg/mL throughout.

For the compound `CNc1cccc2c1[nH]c1nc(Oc3cncc(C#N)c3)cc(N3CCN(CCN4CCOCC4)CC3)c12` [Compound 3.59], the MIC was greater than 64 µg/mL in the test with E. coli ATCC 25922 and 4 µg/mL (≈ 7.8 µM) in the test on S. aureus ATCC 13709.

`CNc1cccc2c1[nH]c1nc(Oc3cncnc3)cc(N3CCN(CCN4CCOCC4)CC3)c12` [Compound 3.60]: the MIC in the test with E. coli ATCC 25922 is greater than 64 µg/mL; in the test with S. aureus ATCC 13709, 8 µg/mL (≈ 16.4 µM).

Regarding `CNc1cccc2c1[nH]c1nc(Oc3cncnc3)cc(N3C[C@@H]4CNC[C@H]4C3)c12` [Compound 3.61], the MIC amounted to 16 µg/mL (≈ 39.9 µM) in the test with E. coli ATCC 25922 and 4 µg/mL (≈ 9.96 µM) with S. aureus ATCC 13709.

`CNc1cccc2c1[nH]c1nc(Oc3cncnc3)cc(N3C/C(=N\OC)[C@@H](N)C3)c12` [Compound 3.62]: the MIC in the test on E. coli ATCC 25922 is 8 µg/mL (≈ 19.1 µM); in the test with S. aureus ATCC 13709, no more than 0.5 µg/mL.

`CNc1cccc2c1[nH]c1nc(Oc3cncnc3)cc(N3CC(F)[C@@H](N)C3)c12` (stereo partly drawn) [Compound 3.63]: the values for the MIC in the test on E. coli ATCC 25922 and with S. aureus ATCC 13709 were 8 µg/mL (≈ 20.3 µM) and no more than 0.5 µg/mL, respectively.

As to `CNc1cccc2c1[nH]c1nc(Oc3cncnc3)cc(N3CCC(N)CC3)c12` [Compound 3.64], the MIC was 64 µg/mL (≈ 164 µM) in the test on E. coli ATCC 25922 and 16 µg/mL (≈ 41.1 µM) in the test on S. aureus ATCC 13709.

For the compound `CNc1cccc2c1[nH]c1nc(Oc3cncnc3)cc(N3CCC4(CNC4)C3)c12` [Compound 3.65], the MIC was determined as 64 µg/mL (≈ 159 µM) in the test with E. coli ATCC 25922 and 8 µg/mL (≈ 19.9 µM) with S. aureus ATCC 13709.

Turning to `CNc1cccc2c1[nH]c1nc(Oc3cncc(F)c3)cc(N3CCC4(CNC4)C3)c12` [Compound 3.66], the MIC with E. coli ATCC 25922 is greater than 32 µg/mL; with S. aureus ATCC 13709, 8 µg/mL (≈ 19.1 µM).

As for `CNc1cccc2c1[nH]c1nc(Oc3cncnc3)cc(N3CC4(CCNC4)C3)c12` [Compound 3.67], the MIC in the test with E. coli ATCC 25922 came out at 64 µg/mL (≈ 159 µM); in the test with S. aureus ATCC 13709, 16 µg/mL (≈ 39.9 µM).

As for `CNc1cc(F)cc2c1[nH]c1nc(Oc3cncnc3)nc(N3CC4C(N)C4C3)c12` (stereo not drawn) [Compound 4.001], the “MIC Ec” value in the test on E. coli ATCC 25922 is no more than 0.5 µg/mL. For the same compound, the “MIC Sa” value in the test on S. aureus ATCC 13709 was no more than 0.5 µg/mL.

Turning to `CNc1cc(F)cc2c1[nH]c1nc(Oc3cncnc3)nc(N3CC(N)C4(CC4)C3)c12` (stereo not drawn) [Compound 4.002], the “MIC Ec” value against E. coli ATCC 25922 was no more than 0.5 µg/mL. Moreover, in the test with S. aureus ATCC 13709, the “MIC Sa” value is no more than 0.5 µg/mL.

As to `CNc1cc(F)cc2c1[nH]c1nc(Oc3cncnc3)nc(N3CCC4(CC4N)C3)c12` (stereo not drawn) [Compound 4.003], the “MIC Ec” value in the test on E. coli ATCC 25922 is no more than 0.5 µg/mL. The “MIC Sa” value in the test on S. aureus ATCC 13709 was no more than 0.5 µg/mL.

Turning to `CNc1cc(F)cc2c1[nH]c1nc(Oc3cncnc3)nc(N3CC4C(CN)C4C3)c12` (stereo not drawn) [Compound 4.004], the “MIC Ec” value in the test with E. coli ATCC 25922 was determined as 2 µg/mL (≈ 4.76 µM). For the same compound, in the test with S. aureus ATCC 13709, the “MIC Sa” value is no more than 0.5 µg/mL.

`CNc1cc(F)cc2c1[nH]c1nc(Oc3cncnc3)nc(N3CC4CC4(N)C3)c12` (stereo not drawn) [Compound 4.005]: the “MIC Ec” value in the test with E. coli ATCC 25922 is no more than 0.5 µg/mL. Further, in the test with S. aureus ATCC 13709, the “MIC Sa” value was no more than 0.5 µg/mL.

Regarding `CNc1cc(F)cc2c1[nH]c1nc(Oc3cncnc3)nc(N3CC4C(N)C4C3)c12` (stereo not drawn) [Compound 4.010], in the test on E. coli ATCC 25922, the “MIC Ec” value is no more than 0.5 µg/mL. The “MIC Sa” value with S. aureus ATCC 13709 is no more than 0.5 µg/mL.
